# Laboratory results reported in PubChem BioAssay (NCI).
#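 96-well plates; 48 h exposure; 5 concentrations. Endpoints by linear interpolation between flanking doses. Not reached: highest tested concentration assigned. At the GI50, growth is halved. TGI is the concentration that stops growth completely.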
# Experiments:
# Experiment in all cases: NCI anticancer screen, dose series, 48 h
# IGROV1 ovarian = tested on: IGROV1 ovarian
# U251 CNS = tested on: U251 CNS
# HCT-116 colon = tested on: HCT-116 colon
# MOLT-4 leukemia = tested on: MOLT-4 leukemia
# DU-145 prostate = tested on: DU-145 prostate
# MDA-MB-231 breast = tested on: MDA-MB-231 breast
# KM12 colon = tested on: KM12 colon
# UACC-62 melanoma = tested on: UACC-62 melanoma
# NCI-H23 lung = tested on: NCI-H23 lung
# COLO 205 colon = tested on: COLO 205 colon
# 786-0 renal = tested on: 786-0 renal
# UO-31 renal = tested on: UO-31 renal
# A549 NSCLC = tested on: A549 NSCLC
# OVCAR-3 ovarian = tested on: OVCAR-3 ovarian
# T-47D breast = tested on: T-47D breast
# OVCAR-5 ovarian = tested on: OVCAR-5 ovarian
# M14 melanoma = tested on: M14 melanoma
# LOX IMVI melanoma = tested on: LOX IMVI melanoma
# HCT-15 colon = tested on: HCT-15 colon
# SN12C renal = tested on: SN12C renal
# MALME-3M melanoma = tested on: MALME-3M melanoma
# SF-295 CNS = tested on: SF-295 CNS
# SK-OV-3 ovarian = tested on: SK-OV-3 ovarian
# SR leukemia = tested on: SR leukemia
# SNB-19 CNS = tested on: SNB-19 CNS
# SF-539 CNS = tested on: SF-539 CNS
# SF-268 CNS = tested on: SF-268 CNS
# OVCAR-4 ovarian = tested on: OVCAR-4 ovarian
# OVCAR-8 ovarian = tested on: OVCAR-8 ovarian
# HCC-2998 colon = tested on: HCC-2998 colon
# SW-620 colon = tested on: SW-620 colon
# CAKI-1 renal = tested on: CAKI-1 renal
# RPMI-8226 leukemia = tested on: RPMI-8226 leukemia
# BT-549 breast = tested on: BT-549 breast
# MCF7 breast = tested on: MCF7 breast
# K-562 leukemia = tested on: K-562 leukemia
# MDA-MB-435 = tested on: MDA-MB-435
# NCI-H226 lung = tested on: NCI-H226 lung
# HS 578T breast = tested on: HS 578T breast
# ACHN renal = tested on: ACHN renal
# SK-MEL-28 melanoma = tested on: SK-MEL-28 melanoma
# CCRF-CEM leukemia = tested on: CCRF-CEM leukemia
# UACC-257 melanoma = tested on: UACC-257 melanoma
# PC-3 prostate = tested on: PC-3 prostate
# NCI-H522 lung = tested on: NCI-H522 lung
# SK-MEL-2 melanoma = tested on: SK-MEL-2 melanoma
# HL-60(TB) leukemia = tested on: HL-60(TB) leukemia
# NCI-H460 lung = tested on: NCI-H460 lung
# NCI/ADR-RES ovarian = tested on: NCI/ADR-RES ovarian
# RXF 393 renal = tested on: RXF 393 renal
# HT29 colon = tested on: HT29 colon
# TK-10 renal = tested on: TK-10 renal
# SNB-75 CNS = tested on: SNB-75 CNS
# HOP-62 NSCLC = tested on: HOP-62 NSCLC
# EKVX NSCLC = tested on: EKVX NSCLC
# SK-MEL-5 melanoma = tested on: SK-MEL-5 melanoma
compound,measurement,setting,value
Cc1c(C#N)cccc1-c1cc(-c2cn(Cc3cccc(C(C)(C)O)n3)nn2)nc(N)n1,GI50,IGROV1 ovarian,14.4 µM
same,TGI,IGROV1 ovarian,> 100 µM
same,GI50,U251 CNS,39.8 µM
same,TGI,U251 CNS,> 100 µM
same,GI50,HCT-116 colon,32.1 µM
same,TGI,HCT-116 colon,> 100 µM
same,GI50,MOLT-4 leukemia,21.3 µM
same,TGI,MOLT-4 leukemia,> 100 µM
same,GI50,DU-145 prostate,37.1 µM
same,TGI,DU-145 prostate,> 100 µM
same,GI50,MDA-MB-231 breast,15.7 µM
same,TGI,MDA-MB-231 breast,> 100 µM
same,GI50,KM12 colon,47.4 µM
same,TGI,KM12 colon,> 100 µM
same,GI50,UACC-62 melanoma,12 µM
same,TGI,UACC-62 melanoma,57.9 µM
same,GI50,NCI-H23 lung,26 µM
same,TGI,NCI-H23 lung,> 100 µM
same,GI50,COLO 205 colon,25.9 µM
same,TGI,COLO 205 colon,> 100 µM
same,GI50,786-0 renal,32 µM
same,TGI,786-0 renal,> 100 µM
same,GI50,UO-31 renal,10.7 µM
same,TGI,UO-31 renal,> 100 µM
same,GI50,A549 NSCLC,26.9 µM
same,TGI,A549 NSCLC,> 100 µM
same,GI50,OVCAR-3 ovarian,17.6 µM
same,TGI,OVCAR-3 ovarian,> 100 µM
same,GI50,T-47D breast,6.9 µM
same,TGI,T-47D breast,62.5 µM
same,GI50,OVCAR-5 ovarian,> 100 µM
same,TGI,OVCAR-5 ovarian,> 100 µM
same,GI50,M14 melanoma,21.7 µM
same,TGI,M14 melanoma,> 100 µM
same,GI50,LOX IMVI melanoma,28.2 µM
same,TGI,LOX IMVI melanoma,> 100 µM
same,GI50,HCT-15 colon,23.2 µM
same,TGI,HCT-15 colon,> 100 µM
same,GI50,SN12C renal,17.2 µM
same,TGI,SN12C renal,> 100 µM
same,GI50,MALME-3M melanoma,31.3 µM
same,TGI,MALME-3M melanoma,> 100 µM
same,GI50,SF-295 CNS,25.2 µM
same,TGI,SF-295 CNS,> 100 µM
same,GI50,SK-OV-3 ovarian,48.8 µM
same,TGI,SK-OV-3 ovarian,> 100 µM
same,GI50,SR leukemia,13.3 µM
same,TGI,SR leukemia,> 100 µM
same,GI50,SNB-19 CNS,47.4 µM
same,TGI,SNB-19 CNS,> 100 µM
same,GI50,SF-539 CNS,39.6 µM
same,TGI,SF-539 CNS,> 100 µM
same,GI50,SF-268 CNS,45.4 µM
same,TGI,SF-268 CNS,> 100 µM
same,GI50,OVCAR-4 ovarian,9.69 µM
same,TGI,OVCAR-4 ovarian,> 100 µM
same,GI50,OVCAR-8 ovarian,24.2 µM
same,TGI,OVCAR-8 ovarian,> 100 µM
same,GI50,HCC-2998 colon,90.3 µM
same,TGI,HCC-2998 colon,> 100 µM
same,GI50,SW-620 colon,51.3 µM
same,TGI,SW-620 colon,> 100 µM
same,GI50,CAKI-1 renal,10.4 µM
same,TGI,CAKI-1 renal,> 100 µM
same,GI50,RPMI-8226 leukemia,7.57 µM
same,TGI,RPMI-8226 leukemia,34.9 µM
same,GI50,BT-549 breast,14.9 µM
same,TGI,BT-549 breast,69.1 µM
same,GI50,MCF7 breast,22.4 µM
same,TGI,MCF7 breast,> 100 µM
same,GI50,K-562 leukemia,13.4 µM
same,TGI,K-562 leukemia,> 100 µM
same,GI50,MDA-MB-435,26.8 µM
same,TGI,MDA-MB-435,> 100 µM
same,GI50,NCI-H226 lung,22.7 µM
same,TGI,NCI-H226 lung,91.9 µM
same,GI50,HS 578T breast,25.6 µM
same,TGI,HS 578T breast,> 100 µM
same,GI50,ACHN renal,28.3 µM
same,TGI,ACHN renal,> 100 µM
same,GI50,SK-MEL-28 melanoma,39.1 µM
same,TGI,SK-MEL-28 melanoma,> 100 µM
same,GI50,CCRF-CEM leukemia,16.3 µM
same,TGI,CCRF-CEM leukemia,> 100 µM
same,GI50,UACC-257 melanoma,27.7 µM
same,TGI,UACC-257 melanoma,> 100 µM
same,GI50,PC-3 prostate,17.7 µM
same,TGI,PC-3 prostate,87.5 µM
same,GI50,NCI-H522 lung,12.4 µM
same,TGI,NCI-H522 lung,> 100 µM
same,GI50,SK-MEL-2 melanoma,21.3 µM
same,TGI,SK-MEL-2 melanoma,79.3 µM
same,GI50,HL-60(TB) leukemia,12.2 µM
same,TGI,HL-60(TB) leukemia,46 µM
same,GI50,NCI-H460 lung,44.9 µM
same,TGI,NCI-H460 lung,> 100 µM
same,GI50,NCI/ADR-RES ovarian,24.1 µM
same,TGI,NCI/ADR-RES ovarian,> 100 µM
same,GI50,RXF 393 renal,22.9 µM
same,TGI,RXF 393 renal,> 100 µM
same,GI50,HT29 colon,28.2 µM
same,TGI,HT29 colon,> 100 µM
same,GI50,TK-10 renal,18.2 µM
same,TGI,TK-10 renal,> 100 µM
same,GI50,SNB-75 CNS,2.96 µM
same,TGI,SNB-75 CNS,39 µM
same,GI50,HOP-62 NSCLC,22.2 µM
same,TGI,HOP-62 NSCLC,> 100 µM
same,GI50,EKVX NSCLC,27.8 µM
same,TGI,EKVX NSCLC,> 100 µM
same,GI50,SK-MEL-5 melanoma,15 µM
same,TGI,SK-MEL-5 melanoma,35.1 µM
